Tested on: E. coli MS 200-1
Test: Inhibition of TMA production in whole cells (LC-MS/MS assay for choline TMA-lyase activity, d9-TMA from d9-choline)
Assay type: cell-based
Conditions: Escherichia coli, MS2001, 3.5 h

Structure (SMILES) | EC50 [µM]
CN1CCCC(O)CC1 (stereo not drawn) [Compound 24] | 760
CC1CCCC1N1CC=CC(O)C1 (stereo not drawn) [Compound 5] | 15

Same assay, conditions: Escherichia coli, MS2001, 3.5 h, read-out: EC50 against E. coli MS200-1

Structure (SMILES) | EC50 [µM]
OC1C=CCN(C2CCCC2Cl)C1 (stereo not drawn) | 52
CC1CCCC1N1CC=CC(O)C1 (stereo not drawn) [drawing 143] | 15
OC1C=CCN(CCCl)C1 (stereo not drawn) | 113
O[C@@H]1C=CCCC1 | 404
CC1CCCC1N1CC=C[C@@H](O)C1 (stereo partly drawn) [drawing 145] | 164
CC1CCCC1N1CC=C[C@H](O)C1 (stereo partly drawn) [drawing 144] | 9
CN1CCCC(O)CC1 (stereo not drawn) [drawing 109] | 762
OC1C=CCCC1 (stereo not drawn) [drawing 162] | 259
O[C@H]1C=CCCC1 | 482

Same assay, conditions: Escherichia coli, MS2001; Table 2; inhibition of TMA-d9 production, 1 mM choline-d9, anaerobic, 3.5 hrs, 37° C.; read-out: EC50

Structure (SMILES) | EC50 [µM]
O[C@@H]1C=CCN(C2CCCCC2)C1 [Compound 7] | 108
O[C@H]1C=CCN(C2CCCCC2)C1 [Compound 8] | 14
CC1CCCCC1N1CC=C[C@H](O)C1 (stereo partly drawn) [Compound 10] | 1.2
OC1C=CCN(C2CCCCC2)C1 (stereo not drawn) [Compound 3] | 20
CN1CCC(O)C1 (stereo not drawn) [Compound 14] | 6300
OC1C=CCN(C2CCCC2)C1 (stereo not drawn) [Compound 2] | 54
CN1CCC(O)CC1 [Compound 15] | 4400
CC1CCCCC1N1CC=CC(O)C1 (stereo not drawn) [Compound 6] | 2
OC1C=CCN(C2CCC2)C1 (stereo not drawn) [Compound 1] | 154
CC1CCCCC1N1CC=C[C@@H](O)C1 (stereo partly drawn) [Compound 9] | 68
CN1CCC[C@@H]1CO [Compound 21] | 2040
OC1C=CCN(C2CCCCCC2)C1 (stereo not drawn) [Compound 4] | 24
OC1C=CCOC1 (stereo not drawn) [Compound 22] | 25
CN1CCCC1CO (stereo not drawn) [Compound 19] | 250
C[N+]1(C)CC=CC(O)C1 (stereo not drawn) [Compound 25] | 10
CN1CCCCC1CN (stereo not drawn) [Compound 17] | 120
CN1CCC[C@H]1CO [Compound 20] | 280

Same assay, conditions: Escherichia coli, MS2001; Table 3; TMA generation of E. coli MS200-1; 100 μM compound

Structure (SMILES) | inhibition at 100 µM [%]
COC1CCCCC1N1CC=CC(O)C1 (stereo not drawn) | 40

Same assay, conditions: Escherichia coli, MS2001; Table 3; TMA generation of E. coli MS200-1; 1 mM compound

Structure (SMILES) | inhibition at 1000 µM [%]
COC(=O)C1CCCC1N1CC=CC(O)C1 (stereo not drawn) | 62

Same assay, conditions: Escherichia coli, MS2001; Table 3; TMA generation of E. coli MS200-1; 3 mM compound

Structure (SMILES) | inhibition at 3000 µM [%]
OC1C=CCN(Cc2ccccn2)C1 (stereo not drawn) | 96
CC(C)N1CC=CC(O)C1 (stereo not drawn) [drawing 136] | 83

Same assay, conditions: Escherichia coli, MS2001; Table 3; TMA generation, 1 mM choline-d9, anaerobic, 3.5 h, 37° C.; read-out: EC50 against E. coli MS200-1

Structure (SMILES) | EC50 [µM]
CN1CCC(O)CC1 [drawing 108] | 4470
C[N+]1(C)CCCC(O)C1 (stereo not drawn) | > 30000
COc1ccc(CN2CC=C[C@H](O)C2)cc1 | 383
COc1ccc(CN2CC=C[C@@H](O)C2)cc1 | 141
CC1CCC(N2CC=CC(O)C2)CC1 (stereo not drawn) | 42
CC1CCCCC1N1CC=CC(O)C1 (stereo not drawn) [drawing 153] | 2
CC1CCC(N2CC=CC(O)C2)C1 (stereo not drawn) | 49
C=CC(O)CN(C)C (stereo not drawn) [drawing 174] | 70
CC(=O)OC1C=CCN(C)C1 (stereo not drawn) | 1790
C[N+]1(C)CC[C@@H](O)C1 | 2100
O[C@@H]1C=CCOC1 | 84
C[N+]1(C)CC=C[C@H](O)C1 | 9
O[C@@H]1C=CCN(Cc2cccs2)C1 | 213
CC1=CCCCC1O (stereo not drawn) | 3800
OC1C=CCN(Cc2ccccc2)C1 (stereo not drawn) [drawing 124] | 367
OC1C=CCN(C2CCC2)C1 (stereo not drawn) [drawing 137] | 192
OC1C=CCN(C2CCCC2)C1 (stereo not drawn) [drawing 140] | 42
O[C@@H]1C=CCN(C2CCCC2)C1 | 62
O[C@@H]1C=CCN(C2CCC2)C1 | 193
OC1C=CCN(C2CCCCC2)C1 (stereo not drawn) [drawing 150] | 22
CN1CCCCC1CO (stereo not drawn) | 120
C[N+]1(C)CC=CC(O)C1 (stereo not drawn) [drawing 114] | 8
OC1C=CCN(C2CCSC2)C1 (stereo not drawn) | 173
O[C@H]1C=CCN(C2CCCC2)C1 | 41
CN1CCC[C@H]1CO [drawing 171] | 185
C[N+]1(C)CC=C[C@@H](O)C1 | 22
CC1=CC(O)CCC1 (stereo not drawn) | 14100

Structure (SMILES) | EC50 [µM]
OC1C=CCN(C2CCCCC2F)C1 (stereo not drawn) | 12
OC1C=CCN(CC2CC2)C1 (stereo not drawn) [drawing 120] | 252
OC1C=CCN(C2CCCCCC2)C1 (stereo not drawn) [drawing 160] | 24
O[C@H]1C=CCN(Cc2cccs2)C1 | 191
OC1C=CCN(Cc2ccsc2)C1 (stereo not drawn) | 260
CC1CCCC(N2CC=CC(O)C2)C1 (stereo not drawn) | 17
OC1C=CCN(Cc2ccco2)C1 (stereo not drawn) | 197
O[C@@H]1C=CCN(CC2CC2)C1 | 151
CC1CCCCC1N1CC=C[C@@H](O)C1 (stereo partly drawn) [drawing 155] | 68
O[C@H]1C=CCN(CC2CC2)C1 | 319
CN1CCC(O)C1 (stereo not drawn) [drawing 102] | 6300
CC1CCCCC1N1CC=C[C@H](O)C1 (stereo partly drawn) [drawing 154] | 12
OC1C=CCOC1 (stereo not drawn) [drawing 167] | 80
O[C@H]1C=CCOC1 | 112
CN1CCC(=O)C1 | > 30000
O[C@H]1C=CCN(C2CCCCC2)C1 [drawing 151] | 14
COc1ccc(CN2CC=CC(O)C2)cc1 (stereo not drawn) | 304
OC1C=CCN(Cc2ccoc2)C1 (stereo not drawn) | 256
CN1CCCC1CO (stereo not drawn) [drawing 170] | 298
OC1C=CCN(CC2CCCCC2)C1 (stereo not drawn) [drawing 123] | 91
CN1CCC[C@@H]1CO [drawing 172] | 1820
CCCN1CC=CC(O)C1 (stereo not drawn) [drawing 118] | 196
O[C@@H]1C=CCN(C2CCCCC2)C1 [drawing 152] | 108
OC1C=CCN(Cc2cccs2)C1 (stereo not drawn) | 225
CC1=CC(O)CN(C)C1 (stereo not drawn) [drawing 117] | 923
OC1C=CCN(CCc2ccccc2)C1 (stereo not drawn) | 294
O[C@H]1C=CCN(C2CCC2)C1 | 116

Same assay, conditions: Table 2; inhibition of TMA-d9 production, 1 mM choline-d9, anaerobic, 3.5 hrs, 37° C.; read-out: EC50

EC50 [µM] | Structure (SMILES)
15 | CN1CC=C[C@@H](O)C1 [Compound 13]
9500 | CN1CCCC(=O)C1 [Compound 16]
10 | CN1CC=C[C@H](O)C1 [Compound 12]
10 | CN1CC=CC(O)C1 (stereo not drawn) [Compound 11]

Same assay, conditions: Table 3; TMA generation, 1 mM choline-d9, anaerobic, 3.5 h, 37° C.; read-out: EC50 against E. coli MS200-1

EC50 [µM] | Structure (SMILES)
30 | [2H]C1(O)C=CCN(C)C1 (stereo not drawn)
27000 | CN1CCCC(=O)C1 [drawing 107]
10 | CN1CC=CC(O)C1 (stereo not drawn) [drawing 110]
31 | CN1CC=C[C@@H](O)C1 [drawing 113]
10 | CN1CC=C[C@H](O)C1 [drawing 112]

Target: CutC (Oleidesulfovibrio alaskensis, UniProt Q30W70)
Test: biochemical
Assay type: biochemical
Conditions: not given

CutC, sequence (Q30W70 whole entry): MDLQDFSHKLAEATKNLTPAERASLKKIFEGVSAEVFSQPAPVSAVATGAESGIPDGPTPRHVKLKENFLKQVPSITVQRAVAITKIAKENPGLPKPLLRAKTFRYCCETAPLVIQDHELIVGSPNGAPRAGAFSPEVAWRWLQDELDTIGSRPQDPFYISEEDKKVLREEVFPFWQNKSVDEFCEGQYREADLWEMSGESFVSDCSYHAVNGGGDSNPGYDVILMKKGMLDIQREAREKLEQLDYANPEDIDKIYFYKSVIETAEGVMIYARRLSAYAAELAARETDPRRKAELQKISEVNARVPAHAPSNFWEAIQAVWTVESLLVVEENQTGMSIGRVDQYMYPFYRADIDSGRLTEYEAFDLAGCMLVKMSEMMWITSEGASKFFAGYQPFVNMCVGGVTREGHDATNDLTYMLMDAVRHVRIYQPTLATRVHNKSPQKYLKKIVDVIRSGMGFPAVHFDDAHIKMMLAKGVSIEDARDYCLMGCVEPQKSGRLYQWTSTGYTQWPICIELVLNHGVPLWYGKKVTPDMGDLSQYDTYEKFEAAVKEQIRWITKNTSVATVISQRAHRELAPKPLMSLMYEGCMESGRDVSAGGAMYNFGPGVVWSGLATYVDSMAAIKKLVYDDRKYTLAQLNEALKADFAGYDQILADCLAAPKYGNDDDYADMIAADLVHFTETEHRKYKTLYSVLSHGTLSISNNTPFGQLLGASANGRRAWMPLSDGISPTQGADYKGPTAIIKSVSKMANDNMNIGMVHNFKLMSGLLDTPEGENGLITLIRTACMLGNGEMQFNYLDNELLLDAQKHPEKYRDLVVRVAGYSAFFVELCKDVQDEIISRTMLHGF

Structure (SMILES) | IC50 [µM] | inhibition at 10 μM
CC(C)N1CC=CC(O)C1 (stereo not drawn) [drawing 191] | 110 | 
CC1CCCC1N1CC=C[C@@H](O)C1 (stereo partly drawn) [drawing 195] |  | No inhibition at 10 μM
OC1C=CCN(C2CCCCC2)C1 (stereo not drawn) [drawing 196] | 63 | 
C=CC(O)CN(C)C (stereo not drawn) [drawing 201] | 23 | 
CC1CCCC1N1CC=C[C@H](O)C1 (stereo partly drawn) [drawing 194] |  | No inhibition at 10 μM
OC1C=CCN(CC2CCCCC2)C1 (stereo not drawn) [drawing 189] | 24 | 
CN1CCCC1CO (stereo not drawn) [drawing 200] | 513 | 
CC1CCCC1N1CC=CC(O)C1 (stereo not drawn) [drawing 193] |  | No inhibition at 10 μM
OC1C=CCN(C2CCC2)C1 (stereo not drawn) [drawing 192] | 203 | 
OC1C=CCN(C2CCCCCC2)C1 (stereo not drawn) [drawing 197] | 14 | 
OC1C=CCN(CC2CC2)C1 (stereo not drawn) [drawing 188] | 76 | 

Same assay, conditions: read-out: IC50 CutC

Structure (SMILES) | IC50 [µM]
OC1C=CCN(Cc2ccccc2)C1 (stereo not drawn) [drawing 190] | 100
C[N+]1(C)CC=CC(O)C1 (stereo not drawn) [drawing 185] | 7
CCCN1CC=CC(O)C1 (stereo not drawn) [drawing 187] | 141
CN1CCCC(O)CC1 (stereo not drawn) [drawing 180] | 2600
CN1CCC(O)CC1 [drawing 179] | 7010
OC1C=CCOC1 (stereo not drawn) [drawing 199] | 2890
OC1C=CCCC1 (stereo not drawn) [drawing 198] | 709
CC1=CC(O)CN(C)C1 (stereo not drawn) [drawing 186] | 422
CN1CCC(O)C1 (stereo not drawn) [drawing 176] | 844

Tested on: E. coli MS69-1
Test: Choline TMA-lyase activity (TMA generation) in cut gene cluster-harboring bacteria
Assay type: cell-based, Escherichia coli
Conditions: 1 mM choline-d9, 3.5 hours, 37° C., read-out: EC50 against E. coli MS69-1

EC50 [µM] | Structure (SMILES)
64 | CN1CC=C[C@@H](O)C1 [drawing 205]
22 | CN1CC=C[C@H](O)C1 [drawing 204]
27 | CN1CC=CC(O)C1 (stereo not drawn) [drawing 203]

Tested on: P. mirabilis ATCC 29906
Test: as above
Assay type: cell-based, Proteus mirabilis
Conditions: 1 mM choline-d9, 3.5 hours, 37° C., read-out: EC50 against P. mirabilis ATCC 29906

EC50 [µM] | Structure (SMILES)
366 | CN1CC=C[C@@H](O)C1 [drawing 205]
92 | CN1CC=C[C@H](O)C1 [drawing 204]
97 | CN1CC=CC(O)C1 (stereo not drawn) [drawing 203]

Tested on: Klebsiella sp. MS92-3
Test: as above
Assay type: cell-based
Conditions: 1 mM choline-d9, 3.5 hours, 37° C., read-out: EC50 against Klebsiella sp. MS92-3

EC50 [µM] | Structure (SMILES)
17 | CN1CC=C[C@@H](O)C1 [drawing 205]
4 | CN1CC=C[C@H](O)C1 [drawing 204]
5 | CN1CC=CC(O)C1 (stereo not drawn) [drawing 203]

Tested on: fecal sample
Test: Choline TMA-lyase activity in a fecal suspension ex vivo
Assay type: cell-based
Conditions: TMA generation, fecal sample 1:10 in Mega media, 1 mM choline-d9, 18 h, 37° C.; read-out: EC50 against fecal sample

EC50 [µM] | Structure (SMILES)
60 | CN1CC=C[C@H](O)C1 [drawing 204]
78 | CN1CC=CC(O)C1 (stereo not drawn) [drawing 203]
